Measurements as given in patent US8852860B2, “Sperm-specific cation channel, CatSper1 and uses therefor” (Children's Medical Center Corporation, priority 2001, dated 2014).

How the values were obtained:
[1] = test system: caudal epididymal wild-type sperm; experiment: Ca2+ imaging of Fluo-4 loaded sperm, wild-type; assay type: cell-based, mouse
Method: (§1) For Ca^2+ imaging, sperm were prepared in HS medium (Wennemuth, et al. (2000), J Biol Chem 275, 21210-7) and loaded with 10 μM Fluo-4-AM and 0.05% Pluronic F-127 for 30 min. at room temperature. Washed cells were seeded onto Cell-Tak coated cover slips. Attached motile sperm were imaged in nonconfocal mode to avoid motion-induced fluorescence change artifacts. The 488 nm wavelength beam of an Argon-Krypton laser was used for excitation and fluorescence emission was collected at 512 nm (Zeiss LSM 410).
(§2) Wild-type and mutant sperm were loaded with Fluo-4 and their fluorescence measured by single photon confocal microscopy.

CatSper1^−/− sperm = experiment: Ca2+ imaging of Fluo-4 loaded sperm, CatSper1-/- mutant; assay type: cell-based, mouse
Method: as §1, §2

CC(=O)[C@H]1CC[C@H]2[C@@H]3CCC4=CC(=O)CC[C@]4(C)[C@H]3CC[C@]12C [progesterone]
Ca^2+ influx (control for dye loading), wild-type sperm ([1]; wild-type sperm): initiated a large Ca^2+ influx
Ca^2+ influx (control for dye loading), mutant sperm (CatSper1^−/− sperm): initiated a large Ca^2+ influx

O=C([O-])O.[Na+] [sodium bicarbonate]
[Ca^2+]i increase on addition to the bath ([1]; 20 mM in bath): induced an increase in [Ca^2+]i that was smaller than that observed with cyclic AMP or GMP

CN[C@@H]1C[C@H]2O[C@@](C)([C@@H]1OC)n1c3ccccc3c3c4c(c5c6ccccc6n2c5c31)C(=O)NC4 [staurosporine]
block of cyclic AMP and cyclic GMP induced [Ca^2+]i increase ([1]; sperm incubated with 1 μM, 10 minutes): not blocked

Nc1nc2c(nc(Br)n2[C@@H]2O[C@@H]3COP(=O)(O)O[C@H]3[C@H]2O)c(=O)[nH]1 [8-Br-cGMP]
sperm head and tail [Ca^2+]i change (Fluo-4 fluorescence) ([1]; wild-type sperm, 1 mM membrane-permeant cyclic nucleotide in bath): initiated Ca^2+ influx in sperm
cyclic nucleotide-induced Ca^2+ influx in mutant sperm (CatSper1^−/− sperm): neither cAMP nor cGMP elicited significant Ca^2+ influx
